Data reported in patent publication US9637516B2, “Betulinic acid proline derivatives as HIV inhibitors” (HETERO RESEARCH FOUNDATION, priority 2012, dated 2017).

Legend:
HIV-1 strain 92HT599 = assay: Antiviral activity: p24 estimation in MT2 cells infected with HIV-1 strain 92HT599; type: cell-based; conditions: for inhibition at 0.1 µM: Human immunodeficiency virus 1, 100 nM; for inhibition at 0.1 µM / inhibition at 1 µM: HIV-1 92HT599, p24, ~96 hours; for inhibition at 1 µM: Human immunodeficiency virus 1, 1000 nM; for IC50: Human immunodeficiency virus 1, HIV-1 92HT599, p24
Procedure: MT2 cells were infected with HIV-1 strain 92HT599 (10 TCID 50/30000 cells). The infected cells were plated at the concentration of ˜30 000 cells per well in 96 well plate. Test compound was added to the micro plate in defined format with the final concentration of DMSO (vehicle) is not more than 1%. Incubation was carried out in CO2 incubator for ˜96 hours for viral infection. At the end of incubation period an aliquot from each well was taken for p24 estimation. The quantitation of p24 is an index for antiviral activity of the compound. Percent inhibition was calculated with reference to control values (vehicle controls). p-24 estimation was carried out using Advance biosciences kit as per the procedure detailed by supplier.

in vitro = type: cell-based; conditions: human, Cytotoxicity % viability
Procedure: (§1) For cyto-toxicity assay the same amount of MT2 cells as in antiviral assay without virus was added to the 96 well plates. The cyto-toxicity was measured using MTT reagent in parallel with p24 estimation. The percent viability is calculated in comparison with vehicle control.

MT2 cells = assay: in vitro; type: cell-based; conditions: human, 1 µM
Procedure: as §1

[1] = Single dose oral pharmacokinetic study; type: in vivo, mice; conditions: mouse, plasma; Mice oral PK @30 mg/kg (Table 3)
Procedure: The test item was administered through oral route to animals (rat/mice) at 30 mg/kg dose in a suitable vehicle at 10 ml/kg dose volume. Blood samples (˜50 uL at each time point) were collected from retro-orbital plexus using K3 EDTA as anticoagulant in eppendorf tubes at defined time intervals under light ether anesthesia. The samples were centrifuged at 3500×g to separate plasma and stored at −80° C. until analysis.
Sample analysis: Test samples were analyzed using LC-MS-MS after developing fit-for-purpose method for each of test compound.

SMILES	inhibition at 0.1 µM (HIV-1 strain 92HT599) [%]	inhibition at 1 µM (HIV-1 strain 92HT599) [%]	viability at 1 µM (in vitro) [%]	Cytotoxicity % viability (MT2 cells) [%]	AUC(0-t) [1] [ng·h/mL]	Cmax [1] [ng/mL]	Tmax [1] [h]	IC50 (HIV-1 strain 92HT599) [nM]
C=C(C)[C@@H]1CC[C@]2(C(=O)N3CCC[C@H]3c3ncc(-c4ccccc4)[nH]3)CC[C@]3(C)[C@H](CC[C@@H]4[C@@]5(C)CC[C@H](OC(=O)CC(C)(C)CC(=O)O)C(C)(C)[C@@H]5CC[C@]43C)[C@@H]12 [Compound 9, 3,3-dimethyl-5-oxo-5-((1R,3aS,5aR,5bR,7aR,9S,11aR,11bR,13aR,13bR)-5a,5b,8,8,11a-pentamethyl-3a-((S)-2-(5-phenyl-1H-imidazol-2-yl)pyrrolidine-1-carbonyl)-1-(prop-1-en-2-yl)icosahydro-1H-cyclopenta[a]chrysen-9-yloxy)pentanoic acid]	81	98	100	99	58000	5460	6	
C=C(C)[C@@H]1CC[C@]2(C(=O)N3CCC[C@H]3c3ncc(-c4cccnc4)[nH]3)CC[C@]3(C)[C@H](CC[C@@H]4[C@@]5(C)CC[C@H](OC(=O)CC(C)(C)C(=O)O)C(C)(C)[C@@H]5CC[C@]43C)[C@@H]12 [Compound 10, 2,2-dimethyl-4-oxo-4-((1R,3aS,5aR,5bR,7aR,9S,11aR,11bR,13aR,13bR)-5a,5b,8,8,11a-pentamethyl-1-(prop-1-en-2-yl)-3a-((S)-2-(5-(pyridin-3-yl)-1H-imidazol-2-yl)pyrrolidine-1-carbonyl)icosahydro-1H-cyclopenta[a]chrysen-9-yloxy)butanoic acid]	100	100	82	81	40500	5840	1.13	0.8
C=C(C)[C@@H]1CC[C@]2(C(=O)N3CCC[C@H]3c3ncc(-c4cccnc4)[nH]3)CC[C@]3(C)[C@H](CC[C@@H]4[C@@]5(C)CC[C@H](OC(=O)CC(C)(C)CC(=O)O)C(C)(C)[C@@H]5CC[C@]43C)[C@@H]12 [Compound 11, 3,3-dimethyl-5-oxo-5-((1R,3aS,5aR,5bR,7aR,9S,11aR,11bR,13aR,13bR)-5a,5b,8,8,11a-pentamethyl-1-(prop-1-en-2-yl)-3a-((S)-2-(5-(pyridin-3-yl)-1H-imidazol-2-yl)pyrrolidine-1-carbonyl)icosahydro-1H-cyclopenta[a]chrysen-9-yloxy)pentanoic acid]	99	100	80	84	59500	7620	1.25	1.51
CC(C)(CC(=O)O)CC(=O)O[C@H]1CC[C@]2(C)[C@H]3CC[C@@H]4[C@H]5[C@H](C6(C)CC6)CC[C@]5(C(=O)N5CCC[C@H]5c5ncc(-c6ccccc6)[nH]5)CC[C@@]4(C)[C@]3(C)CC[C@H]2C1(C)C [Compound 13, 3,3-dimethyl-5-oxo-5-((1R,3aS,5aR,5bR,7aR,9S,11aR,11bR,13aR,13bR)-5a,5b,8,8,11a-pentamethyl-1-(1-methylcyclopropyl)-3a-((S)-2-(5-phenyl-1H-imidazol-2-yl)pyrrolidine-1-carbonyl)icosahydro-1H-cyclopenta[a]chrysen-9-yloxy)pentanoic acid]	78	100	74	72	156000	11100	4	
C=C(C)[C@@H]1CC[C@]2(C(=O)N3CCC[C@H]3c3ncc(-c4ccccc4)[nH]3)CC[C@]3(C)[C@H](CC[C@@H]4[C@@]5(C)CC[C@H](OC(=O)[C@H]6C[C@@H](C(=O)O)C6(C)C)C(C)(C)[C@@H]5CC[C@]43C)[C@@H]12 [Compound 14]	94	100	82	86	171000	11000	5	15.3
